Patent US20080069809A1, “Compositions and methods for the diagnosis and treatment of cancer” (priority 2006, published 2008)

Columns and labels:
Assay type in all cases: cell-based
HL60 [1] = assay: Apoptosis (sub-G1 DNA by FACS, caspase-3 activation) in HL60 leukemic cells
Procedure: (§1) The myeloid leukemic cell lines HL60, NB60, NB4, U937, K562 and KG1a were all grown in RPMI 1640 medium (Life Technologies, Paisley, United Kingdom) supplemented with 10% v/v fetal calf serum (Sear Laboratories International Crawley, United Kingdom), 100 U/mL penicillin, and 100 μg/mL streptomycin (Sigma Aldrich, Poole, United Kingdom) at 37° C. and 5% v/v CO2. AML blasts were isolated from patient bone marrow aspirates and peripheral blood of eight patients at diagnosis or relapse. Patients were not receiving AML therapy at time of sampling. Blasts were isolated by Ficoll density centrifugation and were cultured in serum-free insulin transferrin selenium-positive (ITS+) medium (Life Technologies) containing 300 ng/mL stem cell factor (SCF) and 10 ng/mL interleukin 3 (IL3; R and D Systems, Abingdon, United Kingdom) and antibiotics. […] Normal myeloblasts were isolated from cord blood or adult mobilized peripheral blood. Briefly, CD34^+ cells were indirectly selected from the mononuclear cell preparations using antibody-coated magnetic beads (Miltenyi Biotec, United Kingdom).
To determine the effects of ingenol-3-angelate (PEP005), cells were incubated for up to 5 days with medium alone or PEP005 at a range of concentrations from 0.2 nM to 20 μM. PEP005 was extracted from Euphorbia peplus and supplied as a 98.5% pure preparation by Peplin Limited (Brisbane, Australia) as a dry pellet and was made up to a stock of […] in acetone on a weekly basis. Stocks were stored at 4° C. and diluted into medium when required. Final acetone concentration was never more than 0.1% v/v. Apoptosis and differentiation were assessed after 1 to 5 days.

NB4 [2] = assay: Apoptosis (sub-G1 DNA by FACS) in NB4 leukemic cells
Procedure: as §1
(§2) To determine the effects of ingenol-3-angelate (PEP005), cells were incubated for up to 5 days with medium alone or PEP005 at a range of concentrations from 0.2 nM to 20 μM. […] Apoptosis and differentiation were assessed after 1 to 5 days.

KG1a = assay: Apoptosis (sub-G1 DNA by FACS) in KG1a leukemic cells; conditions: even at 20 μM PEP005
Procedure: as §1, §2

NB4 [3] = assay: Differentiation (CD11b expression) in NB4 cells; conditions: treated 5 days
Procedure: The myeloid leukemic cell lines HL60, NB60, NB4, U937, K562 and KG1a were all grown in RPMI 1640 medium (Life Technologies, Paisley, United Kingdom) supplemented with 10% v/v fetal calf serum (Sear Laboratories International Crawley, United Kingdom), 100 U/mL penicillin, and 100 μg/mL streptomycin (Sigma Aldrich, Poole, United Kingdom) at 37° C. and 5% v/v CO2. AML blasts were isolated from patient bone marrow aspirates and peripheral blood of eight patients at diagnosis or relapse. Patients were not receiving AML therapy at time of sampling. […] Blast purity ranged from 80% to 95%, as assessed by expression of CD34. […]
Cell differentiation was determined by staining of cells with anti-CD11b antibody as a general early marker of myeloid differentiation. In studies with HL60 cells, PEP005-treated and 20 nM phorbol myristate (PMA)-treated (Sigma Aldrich) cells were also assessed for their ability to phagocytose complement-coated yeast, a marker of a fully differentiated myeloid cell, as previously described (Toksoz et al, Leukemia Res 6:491-498, 1982). […] Images were captured with a SPOT2 cameria (Diagnostic Instructions, Sterling Heights, Mich.) and analyzed using Image-Pro 4.0 software (Media Cybernetics, Silver Spring, Md.).

HL60 [4] = assay: Phagocytosis of complement-coated yeast by HL60 cells; conditions: after 3 days of treatment, PMA 20 nM
Procedure: Cell differentiation was determined by staining of cells with anti-CD11b antibody as a general early marker of myeloid differentiation. In studies with HL60 cells, PEP005-treated and 20 nM phorbol myristate (PMA)-treated (Sigma Aldrich) cells were also assessed for their ability to phagocytose complement-coated yeast, a marker of a fully differentiated myeloid cell, as previously described (Toksoz et al, Leukemia Res 6:491-498, 1982). The ingestion of three or more yeasts was taken as a positive result. In normal cord blood or adult bone marrow myeloblasts, loss of CD34 was taken as a marker of differentiation. Isotype-matched controls were used and all antibodies were from DAKO (Cambridge, United Kingdom). […] Cells were also used to prepare cytospins, which were then differentially stained using a commercial May-Grünwald-Ginesa stain (Diff-Kwik; Gamidor, Abingdon, United Kingdom) to identify cells with a blast or differentiated or apoptotic morphology. Slides were examined using a Zeiss III RS brightfield microscope equipped with a 40×/0.75 water-immersion objective (Carl Zeiss, Jena, Germany). Images were captured with a SPOT2 cameria (Diagnostic Instructions, Sterling Heights, Mich.) and analyzed using Image-Pro 4.0 software (Media Cybernetics, Silver Spring, Md.).

PKC-δ = biological target: T1, PKC-δ (Homo sapiens, UniProt Q05655); assay: PKC-δ activation by translocation (cell fractionation, Western blotting) in HL60 cells; conditions: 10 minutes
T1 construct: endogenous in cells; host or cells: HL60
T1 sequence (Q05655 whole entry): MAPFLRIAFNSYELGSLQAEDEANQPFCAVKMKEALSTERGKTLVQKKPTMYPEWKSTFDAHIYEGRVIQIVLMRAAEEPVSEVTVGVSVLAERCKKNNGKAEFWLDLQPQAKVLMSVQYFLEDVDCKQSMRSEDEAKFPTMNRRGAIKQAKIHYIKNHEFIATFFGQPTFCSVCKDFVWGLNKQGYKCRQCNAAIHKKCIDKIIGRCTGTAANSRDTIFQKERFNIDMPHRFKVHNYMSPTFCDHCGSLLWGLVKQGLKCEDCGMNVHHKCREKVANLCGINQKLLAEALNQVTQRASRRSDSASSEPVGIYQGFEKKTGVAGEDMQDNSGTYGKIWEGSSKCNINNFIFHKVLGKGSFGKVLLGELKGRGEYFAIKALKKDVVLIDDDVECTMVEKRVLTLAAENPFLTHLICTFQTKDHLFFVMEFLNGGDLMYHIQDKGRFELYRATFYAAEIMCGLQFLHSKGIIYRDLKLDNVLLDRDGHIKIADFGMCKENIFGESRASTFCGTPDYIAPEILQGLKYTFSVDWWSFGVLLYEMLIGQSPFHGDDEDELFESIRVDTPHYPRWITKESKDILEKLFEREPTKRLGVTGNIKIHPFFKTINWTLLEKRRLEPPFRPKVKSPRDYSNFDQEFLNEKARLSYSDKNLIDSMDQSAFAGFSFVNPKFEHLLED
Procedure: PKC translocates from the soluble to the particulate fraction of cells when activated and this method was used to assess activation of PKC-δ by PEP005 and PMA. Briefly, cells were incubated for 10 minutes in medium alone or 20 nM PEP005 or 20 nM PMA, washed twice in phosphate buffered saline (PBS) and then lysed by homogenization in hypotonic lysis buffer in the absence of detergent. Lysis was checked using trypan blue uptake. Nuclei were isolated by centrifugation at 1000 g for 10 minutes. Centrifugation at 100,000 g for 45 minutes at 4° C. was used to isolate the cytosol (supernatant) and cell membrane (pellet) fractions. All were taken up in SDS sample buffer and analyzed for PKC-δ by Western blotting.

[5] = sub-G1 DNA by FACS, treated 5 days
[6] = within the first 1 to 2 days of treatment

For C/C=C(/C)C(=O)O[C@H]1C(C)=C[C@]23C(=O)[C@@H](C=C(CO)[C@@H](O)[C@]12O)[C@H]1[C@@H](C[C@H]3C)C1(C)C [PEP005, ingenol-3-angelate], the “apoptosis (caspase-3 activity)” value (HL60 [1]; after 3 days of treatment, PMA 20 nM) was “apoptosis was the dominant effect”, the “PEP005 concentration with optimal effect, apoptosis” value (HL60 [1]; [5]) was 20 nM and the “fraction of cells entering apoptosis (kinetic study)” value (HL60 [1]; [6]) was “up to half of the cells entering apoptosis”. For the same compound, the “PEP005 concentration with optimal effect, apoptosis” value (NB4 [2]; [5]) was 20 nM, the “fraction of cells entering apoptosis (kinetic study)” value (NB4 [2]; [6]) was “up to half of the cells entering apoptosis” and the entry into apoptosis (KG1a) was “did not enter apoptosis”. For the same compound, the “PEP005 concentration with optimal effect, CD11b expression” value (NB4 [3]) was 20 nM, the “differentiation to phagocytes (ability to phagocytose yeast)” value (HL60 [4]) was “did not lead to production of phagocytic cells” and the “site of initial PKC-δ translocation” value (PKC-δ; 20 nM PEP005 or 20 nM PMA) was “to the nuclear and cell membranes”. The “activation of PKC-δ (translocation from cytosol to membrane fraction)” value (PKC-δ; 20 nM) was “induced activation of PKC-δ”.
